Data reported in PubChem BioAssay AID1963870 (Molecular Pharmacology Branch, DTP, NCI, 2024).

Tested on: 292921-168-R-J2-PDC KRAS tumor spheroid viability
Assay: Anticancer human tumor 292921-168-R-J2-PDC patient-derived pancreatic carcinoma cell line growth inhibition [KRAS2]
Conditions: spheroids with HUVEC and MSC; for IC50: curve of first compound; for viability, T/C: stronger effect = lower value
Summary of the method: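 KRAS-mutant tumor cells were grown as spheroids with HUVEC endothelial cells and human MSCs as stroma. Targeted agents were tested alone and with KRAS pathway inhibitors. Doses started at or near clinical Cmax, or 10 microM, descending half-log.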

[1] = second compound 0.1 µM, first compound 0.0316 µM
[2] = second compound 0.1 µM, first compound 0.1 µM
[3] = second compound 0.1 µM, first compound 0.316 µM
[4] = second compound 0.1 µM, first compound 1 µM
[5] = second compound 0.1 µM, first compound 3.16 µM
[6] = second compound 0.1 µM, first compound 10 µM
[7] = second compound 0.316 µM, first compound 0.0316 µM
[8] = second compound 0.316 µM, first compound 0.1 µM
[9] = second compound 0.316 µM, first compound 0.316 µM
[10] = second compound 0.316 µM, first compound 1 µM
[11] = second compound 0.316 µM, first compound 3.16 µM
[12] = second compound 0.316 µM, first compound 10 µM
[13] = second compound 1 µM, first compound 0.0316 µM
[14] = second compound 1 µM, first compound 0.1 µM
[15] = second compound 1 µM, first compound 0.316 µM
[16] = second compound 1 µM, first compound 1 µM
[17] = second compound 1 µM, first compound 3.16 µM
[18] = second compound 1 µM, first compound 10 µM
[19] = second compound 3.16 µM, first compound 0.0316 µM
[20] = second compound 3.16 µM, first compound 0.1 µM
[21] = second compound 3.16 µM, first compound 0.316 µM
[22] = second compound 3.16 µM, first compound 1 µM
[23] = second compound 3.16 µM, first compound 3.16 µM
[24] = second compound 3.16 µM, first compound 10 µM
[25] = second compound 10 µM, first compound 0.0316 µM
[26] = second compound 10 µM, first compound 0.1 µM
[27] = second compound 10 µM, first compound 0.316 µM
[28] = second compound 10 µM, first compound 1 µM
[29] = second compound 10 µM, first compound 3.16 µM
[30] = second compound 10 µM, first compound 10 µM
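Also: drug exposure lasted seven days after spheroids formed for three days.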
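For viability, T/C in this document: percent of DMSO vehicle control viability which is 100%.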

| SMILES | IC50 (second compound 0.1 µM) | IC50 (second compound 0.316 µM) | IC50 (second compound 1 µM) | IC50 (second compound 3.16 µM) | IC50 (second compound 10 µM) | viability, T/C [1] | viability, T/C [2] | viability, T/C [3] | viability, T/C [4] | viability, T/C [5] | viability, T/C [6] | viability, T/C [7] | viability, T/C [8] | viability, T/C [9] | viability, T/C [13] | viability, T/C [14] | viability, T/C [19] | viability, T/C [20] | viability, T/C [25] | viability, T/C [26] | also measured |
| --- | --- | --- | --- | --- | --- | --- | --- | --- | --- | --- | --- | --- | --- | --- | --- | --- | --- | --- | --- | --- | --- |
| Cn1nccc1Nc1nccc(-c2cc3c(s2)C(C)(C)N(CCN2CCOCC2)C3=O)n1 + CNCc1ccccc1-c1csc(C(C)Nc2nc(C)nc3cc(OC)c(OC)cc23)c1 | 83.9 nM | 66.6 nM | < 31.6 nM | < 31.6 nM | < 31.6 nM | 73.9% | 45.7% | 19% | 12.3% | 10.2% | 10.2% | 68.8% | 39.7% | 18.6% | 47.1% | 30.1% | 0.09% | 0.29% | 0.08% | 0.09% | viability, T/C [10]: 10.9%; viability, T/C [11]: 9.74%; viability, T/C [12]: 10.6%; viability, T/C [15]: 14.5%; viability, T/C [16]: 11.1%; viability, T/C [17]: 8.76%; viability, T/C [18]: 6.3%; viability, T/C [21]: 0.03%; viability, T/C [22]: 0.03%; viability, T/C [23]: 0.03%; viability, T/C [24]: 0.11%; viability, T/C [27]: 0.1%; viability, T/C [28]: 0.09%; viability, T/C [29]: 0.1%; viability, T/C [30]: 0.15% |
| COc1cc2nccc(Oc3ccc(NC(=O)C4(C(=O)Nc5ccc(F)cc5)CC4)cc3)c2cc1OC + CNCc1ccccc1-c1csc(C(C)Nc2nc(C)nc3cc(OC)c(OC)cc23)c1 | 1270 nM | 1050 nM | 401 nM | < 31.6 nM | < 31.6 nM | 89.2% | 94.5% | 82.5% | 57.1% | 25.1% | 18.1% | 89.4% | 90.8% | 73.4% | 69.1% | 65.5% | 0.1% | 0.09% | 0.08% | 0.13% | viability, T/C [10]: 55.3%; viability, T/C [11]: 19.8%; viability, T/C [12]: 17%; viability, T/C [15]: 50.1%; viability, T/C [16]: 40.2%; viability, T/C [17]: 15.1%; viability, T/C [18]: 3.12%; viability, T/C [21]: 0.13%; viability, T/C [22]: 0.06%; viability, T/C [23]: 0.05%; viability, T/C [24]: 0.1%; viability, T/C [27]: 0.21%; viability, T/C [28]: 0.08%; viability, T/C [29]: 0.42%; viability, T/C [30]: 0.25% |
| CC(C)n1nc(-c2ccc3oc(N)nc3c2)c2c(N)ncnc21 + CC1OCC2(CCN(c3cnc(Sc4ccnc(N)c4Cl)c(N)n3)CC2)C1N | 1.06 nM | < 0.316 nM | < 0.316 nM | < 0.316 nM | < 0.316 nM | 20.8% | 19.1% |  |  |  |  | 18.4% | 16.6% |  | 17.4% | 14.5% | 14.9% | 12.5% | 12.8% | 11.3% | viability, T/C (second compound 0.1 µM, first compound 0.000316 µM): 66.5%; viability, T/C (second compound 0.1 µM, first compound 0.001 µM): 51.4%; viability, T/C (second compound 0.1 µM, first compound 0.00316 µM): 35.4%; viability, T/C (second compound 0.1 µM, first compound 0.01 µM): 29.4%; viability, T/C (second compound 0.316 µM, first compound 0.000316 µM): 48.7%; viability, T/C (second compound 0.316 µM, first compound 0.001 µM): 38.5%; viability, T/C (second compound 0.316 µM, first compound 0.00316 µM): 30.5%; viability, T/C (second compound 0.316 µM, first compound 0.01 µM): 21.6%; viability, T/C (second compound 1 µM, first compound 0.000316 µM): 44%; viability, T/C (second compound 1 µM, first compound 0.001 µM): 36.4%; viability, T/C (second compound 1 µM, first compound 0.00316 µM): 26.1%; viability, T/C (second compound 1 µM, first compound 0.01 µM): 19.3%; viability, T/C (second compound 3.16 µM, first compound 0.000316 µM): 32.3%; viability, T/C (second compound 3.16 µM, first compound 0.001 µM): 28.3%; viability, T/C (second compound 3.16 µM, first compound 0.00316 µM): 23.7%; viability, T/C (second compound 3.16 µM, first compound 0.01 µM): 16.6%; viability, T/C (second compound 10 µM, first compound 0.000316 µM): 27.2%; viability, T/C (second compound 10 µM, first compound 0.001 µM): 27.8%; viability, T/C (second compound 10 µM, first compound 0.00316 µM): 20.1%; viability, T/C (second compound 10 µM, first compound 0.01 µM): 17% |
